Consider one compound from patent US20190076357A1 (SHANGHAI WEI ER BIOPHARMACEUTICAL TECHNOLOGY CO., LTD., priority 2016, published 2019).

A short description of series [1]: Solubility in medium chain oil. It is filed as physicochemical. The conditions noted are these: oil or lipid.
Series [2] is described as follows: Drug-forming properties of paclitaxel palmitate preparations (dose forms and preparation methods). Format: physicochemical. The settings on record: drug loading 3 mg/mL. As for the experimental part:
300 mg paclitaxel palmitate, 3.5 g high-purity egg yolk lecithin (EPCS), and 0.3 g DSPE-PEG2000 were weighed out, added with 3 g propylene glycol, and dissolved at 65° C. to obtain an organic phase; 85 g water was weighed out, and dissolved by stirring and heated at 65° C. to obtain an aqueous phase. The organic phase was injected into the aqueous phase by stirring, and mixed to obtain a crude liposome, which was then placed in an extruder, and sequentially extruded through an extrusion film with a pore size of 0.4 μm, 0.2 μm, 0.1 μm, and 0.05 μm, and added with water to 100 ml. pH was adjusted to 4.5 with hydrochloric acid. The filter was sterilized by filtration through a 0.22 μm filter to obtain liposomal paclitaxel palmitate formulations.
0.3 g paclitaxel palmitate and 0.3 g (or 1.5 g, or 3 g, or 6 g, or 9 g) polyethylene glycol monomethyl ether-polylactic acid were weighed out and dissolved in an appropriate amount of acetonitrile. […]

Usually solubility stands for how much of the substance goes into solution per volume. A lower solubility goes with little dissolved substance. Regarding `CC(=O)O[C@H]1C(=O)[C@@]2(C)[C@H]([C@H](OC(=O)c3ccccc3)[C@]3(O)C[C@H](OC(=O)[C@H](O)[C@@H](NC(=O)c4ccccc4)c4ccccc4)C(C)=C1C3(C)C)[C@]1(OC(C)=O)CO[C@@H]1C[C@@H]2O` [paclitaxel, Paclitaxel], the solubility in series [1] is < 5000 µg/mL. Moreover, the appearance result in series [2] is listed as “completely clarified”.
